Measured values published in patent US9365587B2, “Synthesis of carbamoylpyridone HIV integrase inhibitors and intermediates” (Shionogi & Co., Ltd., priority 2008, dated 2016).

Key:
Conditions in all cases: crystal
[1] = pharmacokinetics of the crystals (BA, Cmax, Tmax); type: in vivo
[2] = solubility of the crystals in water or saline; type: physicochemical
[3] = stability of the crystals against heat or light; type: physicochemical

In the case of `C[C@@H]1CCO[C@H]2Cn3cc(C(=O)NCc4ccc(F)cc4F)c(=O)c(O)c3C(=O)N12` [Compound 13], the “bioavailability (BA)” value [1] is reported as “high”, the “maximum drug concentration (Cmax)” value [1] is reported as “high” and the “maximum drug concentration time (Tmax)” value [1] is reported as “short”. The “solubility in water or saline” value [2] was “high” and the “stability against heat or light” value [3] was “high”.
